How the values were obtained:
[1] = system: Aβ42; assay: Screening for γ-secretase-modulating activity, Method 1: Aβ42 sandwich ELISA on SKNBE2 cell media; assay type: cell-based; settings: SKNBE2 cells carrying APP 695 wild type
Experimental: (§1) Screening was carried out using SKNBE2 cells carrying the APP 695—wild type, grown in Dulbecco's Modified Eagle's Medium/Nutrient mixture F-12 (DMEM/NUT-mix F-12) (HAM) provided by Gibco (cat no. 31330-38) containing 5% Serum/Fe supplemented with 1% non-essential amino acids. Cells were grown to near confluency.
(§2) The screening was performed using the assay as described in Citron et al (1997) Nature Medicine 3: 67. Briefly, cells were plated in a 96-well plate at about 10^5 cells/ml one day prior to addition of compounds. Compounds were added to the cells in Ultraculture (Lonza, BE12-725F) supplemented with 1% glutamine (Invitrogen, 25030-024) for 18 hours. The media were assayed by two sandwich ELISAs, for Aβ42 and Aβtotal. Toxicity of the compounds was assayed by WST-1 cell proliferation reagent (Roche, 1 644 807) according to the manufacturer's protocol.
To quantify the amount of Aβ42 in the cell supernatant, commercially available Enzyme-Linked-Immunosorbent-Assay (ELISA) kits were used (Innotest® β-Amyloid(1-42), Innogenetics N.V., Ghent, Belgium). The Aβ42 ELISA was performed essentially according to the manufacturer's protocol. Briefly, the standards (dilutions of synthetic Aβ1-42) were prepared in polypropylene Eppendorf with final concentrations of 8000 down to 3.9 pg/ml (1/2 dilution step). Samples, standards and blanks (100 μl) were added to the anti-Aβ42-coated plate supplied with the kit (the capture antibody selectively recognizes the C-terminal end of the antigen). The plate was allowed to incubate 3 h at 25° C. in order to allow formation of the antibody-amyloid complex. Following this incubation and subsequent wash steps a selective anti-Aβ-antibody conjugate (biotinylated 3D6) was added and incubated for a minimum of 1 hour in order to allow formation of the antibody-Amyloid-antibody-complex. After incubation and appropriate wash steps, a Streptavidine-Peroxidase-Conjugate was added, followed 30 minutes later by an addition of 3,3′,5,5′-tetramethylbenzidine (TMB)/peroxide mixture, resulting in the conversion of the substrate into a coloured product. This reaction was stopped by the addition of sulfuric acid (0.9 N) and the colour intensity was measured by means of photometry with an ELISA-reader with a 450 nm filter.
(§3) To obtain the values reported in Table 3a, the sigmoidal dose response curves were analysed by computerised curve-fitting, with percent of inhibition plotted against compound concentration. A 4-parameter equation (model 205) in XLfit was used to determine the IC50. The top and the bottom of the curve were fixed to 100 and 0, respectively, and the hill slope was fixed to 1. The IC50 represents the concentration of a compound that is required for inhibiting a biological effect by 50% (Here, it is the concentration where Aβ peptide level is reduced by 50%).
(§4) To obtain the values reported in Table 3b, the data were calculated as percentage of the maximum amount of amyloid Beta 42 measured in the absence of the test compound. The sigmoidal dose response curves were analyzed using non-linear regression analysis with percentage of the control plotted against the log concentration of the compound. A 4-parameter equation was used to determine the IC50. The values reported in Table 3b are averaged IC50 values.

[2] = system: Aβtotal; assay: Screening for γ-secretase-modulating activity, Method 1: Aβtotal sandwich ELISA on SKNBE2 cell media; assay type: cell-based; settings: SKNBE2 cells carrying APP 695 wild type
Experimental: as §1, §2
To quantify the amount of Aβtotal in the cell supernatant, samples and standards were added to a 6E10-coated plate. The plate was allowed to incubate overnight at 4° C. in order to allow formation of the antibody-amyloid complex. Following this incubation and subsequent wash steps a selective anti-Aβ-antibody conjugate (biotinylated 4G8) was added and incubated for a minimum of 1 hour in order to allow formation of the antibody-Amyloid-antibody-complex. After incubation and appropriate wash steps, a Streptavidine-Peroxidase-Conjugate was added, followed 30 minutes later by an addition of Quanta Blu fluorogenic peroxidase substrate according to the manufacturer's instructions (Pierce Corp., Rockford, Ill.).
as §3, §4

[3] = Homo sapiens, Table 3a, 18 hours, XLfit, top/bottom fixed to 100 and 0, hill slope 1
[4] = Homo sapiens, Table 3b, non-linear regression of % of control, averaged IC50 values
[5] = Table 3a, 18 hours, XLfit, top/bottom fixed to 100 and 0, hill slope 1
[6] = Table 3b, non-linear regression of % of control, averaged IC50 values

| IC50 [1, 3] [nM] | IC50 [1, 4] [nM] | IC50 [2, 3] [µM] | IC50 [2, 4] [µM] | IC50 [1, 5] [nM] | IC50 [1, 6] [nM] | IC50 [2, 5] [µM] | IC50 [2, 6] [µM] | Compound |
| --- | --- | --- | --- | --- | --- | --- | --- | --- |
| 751 | 575 | > 30 | 29.5 |  |  |  |  | COc1cc(Nc2cccc3c2nc(CC2CCN(C(C)=O)CC2)n3C)ccc1-n1cnc(C)c1 [Compound 10] |
| 1590 | 1260 | 12.1 | 16.6 |  |  |  |  | COc1cc(Nc2cccc3c2nc(CC2CCN(C)CC2)n3C)ccc1-n1cnc(C)c1 [Compound 11] |
| 603 | 603 | > 10 | > 10 |  |  |  |  | Cc1ncnn1-c1ccc(Nc2nccc3c2nc(-c2ccc(F)cc2)n3C(C)C)cc1F [Compound 13] |
| 132 | 132 | > 10 | > 10 |  |  |  |  | Cc1ncn(-c2ccc(Nc3cc(C(F)(F)F)cc4c3nc(-c3ccc(F)cc3)n4C)cn2)n1 [Compound 14] |
| 267 | 257 | > 10 | > 10 |  |  |  |  | COc1cc(Nc2cccc3oc(-c4ccccc4Cl)nc23)ccc1-n1cnc(C)c1 [Compound 16] |
| 178 | 174 | > 3 | > 3 |  |  |  |  | COc1cc(Nc2cccc3oc(C4CCCCC4)nc23)ccc1-n1cnc(C)c1 [Compound 17] |
|  |  |  |  | 1660 | 1660 | > 10 | > 10 | COc1cc(Nc2cccc3c2nc(C)n3C)ccc1-n1cnc(C)c1 [Compound 19] |
|  |  |  |  | 905 | 891 | > 33 | 45.7 | COc1cc(Nc2cccc3c2nc(C)n3C(C)C)ccc1-n1cnc(C)n1 [Compound 21] |
|  |  |  |  | 505 | 380 | 18 | 17.8 | CCCCc1nc2c(Nc3ccc(-n4cnc(C)n4)c(F)c3)cccc2n1C [Compound 24] |
|  |  |  |  | 19 | 19 | > 3 | > 3 | COc1cc(Nc2cccc3c2nc(CC(C)C)n3C)ccc1-n1cnc(C)c1 [Compound 25] |
|  |  |  |  | 517 | 708 | > 10 | > 10 | Cc1ncn(-c2ccc(Nc3cccc4c3nc(CC(C)C)n4CC(C)C)cc2)n1 [Compound 26] |
|  |  |  |  | 1250 | 1120 | > 10 | 17.4 | COCCn1c(CC(C)C)nc2c(Nc3ccc(-n4cnc(C)n4)cc3)cccc21 [Compound 27] |
|  |  |  |  | 1350 | 1350 | > 3 | > 3 | COc1cc(Nc2cccc3oc(CC(C)C)nc23)ccc1-n1cnc(C)n1 [Compound 28] |
|  |  |  |  | 1090 | 437 | > 10 | > 10 | COc1cc(Nc2cccc3c2nc(C(C)(C)C)n3C)ccc1-n1cnc(C)c1 [Compound 29] |
|  |  |  |  | 790 | 794 | > 3 | > 3 | COc1cc(Nc2cccc3oc(C(C)(C)C)nc23)ccc1-n1cnc(C)c1 [Compound 30] |
|  |  |  |  | 550 | 501 | 29.7 | > 30 | COc1cc(Nc2cccc3c2nc(OC(C)C)n3C)ccc1-n1cnc(C)c1 [Compound 31] |
|  |  |  |  | 216 | 209 | > 10 | > 10 | COCCCc1nc2c(Nc3ccc(-n4cnc(C)c4)c(OC)c3)cccc2n1C [Compound 32] |
|  |  |  |  | 51 | 43 | > 1 | > 1 | COc1cc(Nc2cccc3c2nc(CCC(F)(F)F)n3C)ccc1-n1cnc(C)c1 [Compound 34] |
|  |  |  |  | 266 | 275 | > 10 | > 10 | COc1cc(Nc2cccc3oc(C4CCCC4)nc23)ccc1-n1cnc(C)c1 [Compound 37] |

| IC50 [1, 3] [nM] | IC50 [1, 4] [nM] | IC50 [2, 3] [µM] | IC50 [2, 4] [µM] | IC50 [1, 5] [nM] | IC50 [1, 6] [nM] | IC50 [2, 5] [µM] | IC50 [2, 6] [µM] | Compound |
| --- | --- | --- | --- | --- | --- | --- | --- | --- |
|  |  |  |  | 69 | 87 | > 3 | > 5 | COc1cc(Nc2cccc3c2nc(N2CCCCC2)n3C)ccc1-n1cnc(C)c1 [Compound 39] |
|  |  |  |  | 1100 | 1100 | > 3 | > 3 | COc1cc(Nc2cccc3oc(C4CCN(C(=O)OC(C)(C)C)CC4)nc23)ccc1-n1cnc(C)c1 [Compound 42] |
|  |  |  |  | 123 | 120 | > 1 | > 5 | COc1cc(Nc2cccc3c2nc(CC2CCOCC2)n3C)ccc1-n1cnc(C)c1 [Compound 43] |
| 10 | 10 | > 1 | > 3 |  |  |  |  | COc1cc(Nc2cccc3c2nc(-c2ccccc2C)n3Cc2ccccc2)ccc1-n1cnc(C)c1 [Compound 46] |
|  |  |  |  | 16 | 13 | > 1 | > 3 | COc1ccc(-c2nc3c(Nc4ccc(-n5cnc(C)c5)c(OC)c4)cccc3n2C)cc1 [Compound 47] |
|  |  |  |  | 427 | 398 | > 10 | > 10 | COc1ccccc1-c1nc2c(Nc3ccc(-n4cnc(C)c4)c(OC)c3)cccc2o1 [Compound 48] |
|  |  |  |  | 101 | 81 | > 10 | > 10 | COc1cccc(-c2nc3c(Nc4ccc(-n5cnc(C)n5)cc4)cccc3n2C)c1 [Compound 50] |
|  |  |  |  | 20 | 19 | > 3 | > 3 | COc1cccc(-c2nc3c(Nc4ccc(-n5cnc(C)n5)c(OC)c4)cccc3n2C)c1 [Compound 52] |
|  |  |  |  | 22 | 19 | > 1 | > 3 | COc1cccc(-c2nc3c(Nc4ccc(-n5cnc(C)n5)c(OC)c4)cccc3n2C(C)C)c1 [Compound 53] |
|  |  |  |  | 68 | 65 | > 3 | > 3 | CCOc1cc(C)c(-c2nc3c(Nc4ccc(-n5cnc(C)n5)c(OC)c4)cccc3n2C)cc1C(C)C [Compound 58] |
|  |  |  |  | 14 | 14 | > 1 | > 3 | CCOc1cc(C)c(Nc2nc3c(Nc4ccc(-n5cnc(C)c5)c(OC)c4)cccc3n2C)cc1C(C)C [Compound 60] |
|  |  |  |  | 114 | 195 | > 1 | > 3 | COc1cc(Nc2cccc3[nH]c(-c4ccc(F)cc4)nc23)ccc1-n1cnc(C)c1 [Compound 62] |
|  |  |  |  | 23 | 22 | > 1 | > 3 | COc1cc(Nc2cccc3c2nc(-c2ccc(F)cc2)n3C)ccc1-n1ccnc1 [Compound 63] |
|  |  |  |  | 48 | 49 | > 3 | > 3 | COc1cc(Nc2cccc3c2nc(-c2ccc(F)cc2)n3C)ccc1-n1cncn1 [Compound 64] |
|  |  |  |  | 89 | 81 | > 3 | > 3 | Cn1c(-c2ccc(F)cc2)nc2c(Nc3ccc(-n4cncn4)c(F)c3)cccc21 [Compound 65] |
|  |  |  |  | 720 | 724 | > 3 | > 3 | COc1cc(Nc2cccc3c2nc(-c2ccc(F)cc2)n3C)ccc1-n1cnc(C#N)c1 [Compound 72] |
|  |  |  |  | 190 | 191 | > 3 | > 3 | Cc1ncn(-c2ccc(Nc3cccc4c3nc(-c3ccc(F)cc3)n4C(C)(C)C)cc2)n1 [Compound 77] |
|  |  |  |  | 24 | 23 | > 10 | > 10 | COc1cc(Nc2cccc3c2nc(-c2ccc(F)cc2)n3Cc2ccccc2)ccc1-n1cnc(C)c1 [Compound 79] |

— patent US8772504B2, “Substituted benzoxazole, benzimidazole, oxazolopyridine and imidazopyridine derivatives as gamma secretase modulators” (Janssen Pharmaceuticals, Inc., priority 2009, dated 2014)
